Reference: patent US7915293B2, “Ubiquitin ligase inhibitors” (Rigel Pharmaceuticals, Inc., priority 2003, dated 2011)

Key:
Parameters in all cases: key: “+” indicates that the compound exibits inhibitory activity; “−” indicates that low or no inhibitory activity was observed
[1] = tested on: A549 cells; assay: Cell proliferation assay, photographic image analysis of proliferation, apoptosis and death (PAD assay), A549; type: cell-based; settings: 6 concentrations tested
Method: (§1) A549 (ATCC# CCL-185), HeLa (ATCC# CCL-2), HCT116 (ATCC# CCL-247), and H1299 (ATCC# CRL-5803) cells were maintained in T175 flasks following the ATCC recommended media and handling procedures. Flasks reaching approximately 70% confluency were trypsinized and resuspended in RPMI media (Cell-Gro catalog number 10-040-CM) modified to contain 5% FBS, 100 ug/mlPen/Strep (Cell-Gro catalog number 30-002-CL), and 0.3 mg/ml L-Glutamine (Cell-Gro catalog number 25-003-CL). A 20,000 cells/ml solution was made for plating. Cells were plated in black Packard 96 well plates by placing 100 μl per well (2,000 cells per well).
(§2) Compounds and additional media were added 24 hours after cell plating. A compound master plate was created with concentrations 500 times greater than the final concentration added to the cells. All compound testing was done in duplicate using 6.3 fold dilutions starting with 10 mM. All outside wells (and 4 internal wells) were DMSO controls. Taxol and at least one additional control were run on all plates. Three microliters of the compound master plate were added to deep well blocks containing 750 μl of RPMI media. One hundred microliters were transferred from the compound/media deep well blocks to the plated cells resulting in a 500 fold dilution of the compounds. Cells were grown at 37° C., 5% CO2 for 48 hours.
(§3) Cells to be analyzed by photography were fixed and stained. One hundred microliters of media were removed and 100 μl of 9.3% […] was added to each well. Plates were left on the benchtop for 45 minutes. A staining solution containing 1.55 μl of 1 mg/ml DAPI added to 18.75 ml PBS was warmed for 15 minutes at 37° C. The cells were aspirated prior to washing with 100 μl of PBS. Seventy microliters of PBS were aspirated and 170 μl of the DAPI solution were added to each well of fixed cells. Plates were left at room temperature for one hour then aspirated and washed twice with 100 μl of PBS. The stained cells were left at 4° C. for a minimum of 16 hours before photographic analysis with Array Scan II (Cellomics). Analysis of the photographic images to determine numbers of live cells (proliferation), apoptotic cells and dead cells, were according to the methods described in U.S. Provisional Patent Application Ser. No. 60/406,714, which incorporated herein in its entirety.

[2] = tested on: HeLa cells; assay: Cell proliferation assay, photographic image analysis of proliferation, apoptosis and death (PAD assay), HeLa; type: cell-based; settings: 6 concentrations tested
Method: as §1, §2, §3

[3] = target: E3 (His-APC11/APC2-"APC") (Homo sapiens, UniProt Q9NYG5+Q9UJX6); assay: Plate-based E3 ligase assay (APC FLAG), auto-ubiquitination; type: biochemical; settings: for APC Flag 8 pt: 8 concentrations tested
Sequence of E3 (His-APC11/APC2-"APC") (Q9NYG5 whole entry): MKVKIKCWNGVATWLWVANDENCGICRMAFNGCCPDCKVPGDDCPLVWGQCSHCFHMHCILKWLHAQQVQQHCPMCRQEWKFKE
Sequence of E3 (His-APC11/APC2-"APC") (Q9UJX6 whole entry): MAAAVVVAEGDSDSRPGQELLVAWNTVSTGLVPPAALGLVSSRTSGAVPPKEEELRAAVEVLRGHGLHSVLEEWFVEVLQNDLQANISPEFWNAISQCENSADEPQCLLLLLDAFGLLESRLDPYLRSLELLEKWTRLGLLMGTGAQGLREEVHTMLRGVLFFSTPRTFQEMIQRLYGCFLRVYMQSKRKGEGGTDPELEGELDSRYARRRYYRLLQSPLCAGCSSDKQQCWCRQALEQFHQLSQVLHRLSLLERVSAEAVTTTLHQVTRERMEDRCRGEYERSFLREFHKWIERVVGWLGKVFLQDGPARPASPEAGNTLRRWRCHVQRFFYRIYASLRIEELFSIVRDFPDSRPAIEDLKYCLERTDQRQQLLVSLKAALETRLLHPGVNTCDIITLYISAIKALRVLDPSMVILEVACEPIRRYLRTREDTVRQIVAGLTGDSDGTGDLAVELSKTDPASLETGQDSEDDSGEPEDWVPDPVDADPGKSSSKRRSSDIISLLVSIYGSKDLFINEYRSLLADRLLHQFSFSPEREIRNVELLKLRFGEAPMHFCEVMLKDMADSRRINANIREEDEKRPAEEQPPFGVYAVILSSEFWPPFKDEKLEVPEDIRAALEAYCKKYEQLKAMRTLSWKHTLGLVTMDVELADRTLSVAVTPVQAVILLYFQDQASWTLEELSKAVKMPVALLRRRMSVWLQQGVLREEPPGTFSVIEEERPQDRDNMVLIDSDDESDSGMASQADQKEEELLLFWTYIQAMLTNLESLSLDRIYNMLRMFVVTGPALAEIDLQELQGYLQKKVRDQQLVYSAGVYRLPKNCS
How it was run: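 His-APC11/APC2 auto-ubiquitination was run in casein-blocked nickel plates for 1 h at room temperature, with E1 at 5 ng/well, UbcH5c at 20 ng/well and APC at 100 ng/well. Buffer was 62.5 mM Tris pH 7.6, 3 mM MgCl2, 1 mM DTT, 2.5 mM ATP and Flag-ubiquitin at 100 ng/well. Detection used anti-Flag/HRP chemiluminescence, and IC50 was typically from 6 or 8 concentrations versus a DMSO control.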

Row | SMILES | PAD Assay, A549 6 pt [1] | PAD Assay, HELA 6 pt [2] | APC Flag 8 pt [3] | APC Flag (2 pt) ([3]; 2 concentrations tested)
1 | O=[N+]([O-])c1ccc(Oc2c(Cl)cc(S(=O)(=O)Nc3c(F)cc(F)cc3F)cc2Cl)c(Cl)c1 [Example 241, 3,5-dichloro-4-(2-chloro-4-nitrophenoxy)-N-(2,4,6-trifluorophenyl)benzenesulfonamide] | + | + | + | 
2 | O=S(=O)(Nc1ccc(Oc2ccc(F)cc2)c(Br)c1)c1cccc(Cl)c1 [Compound 282, N-[3-bromo-4-(4-fluorophenoxy)phenyl]-3-chlorobenzenesulfonamide] | + | − | + | 
3 | O=S(=O)(Nc1ccc(Oc2ccc(Cl)cc2)cc1)c1cc(Cl)ccc1Cl [Example 276, 2,5-dichloro-N-[4-(4-chlorophenoxy)phenyl]benzenesulfonamide] | + | − | + | 
4 | Cc1cc(NS(=O)(=O)c2cc(Cl)c(Oc3ccc([N+](=O)[O-])cc3Cl)c(Cl)c2)no1 [Example 217, 3,5-dichloro-4-(2-chloro-4-nitrophenoxy)-N-(5-methylisoxazol-3-yl)benzenesulfonamide] | − | − |  | − (2 pt)
5 | O=S(=O)(Nc1ccc(Oc2c(Cl)cc(Cl)cc2Cl)cc1)c1cc(Cl)ccc1Cl [Example 279, 2,5-dichloro-N-[4-(2,4,6-trichlorophenoxy)phenyl]benzenesulfonamide] | + | + | + | 
6 | O=[N+]([O-])c1ccc(F)c(NS(=O)(=O)c2ccc(Oc3ncc(C(F)(F)F)cc3Cl)cc2)c1 [Example 258, 4-{[3-chloro-5-(trifluoromethyl)pyridin-2-yl]oxy}-N-(2-fluoro-5-nitrophenyl)benzene-sulfonamide] | + | + | + | 
7 | O=C(Nc1ccc(Oc2ccc(F)cc2)c(Br)c1)c1cccc(Cl)c1 [Compound 303] | + | + | − | 
8 | Cc1ccc(F)cc1NS(=O)(=O)c1cc(Cl)c(Oc2ccc([N+](=O)[O-])cc2Cl)c(Cl)c1 [Compound 242, 3,5-dichloro-4-(2-chloro-4-nitrophenoxy)-N-(5-fluoro-2-methylphenyl)benzene sulfonamide] | + | + | + | 
9 | O=[N+]([O-])c1ccc(Oc2c(Cl)cc(S(=O)(=O)Nc3cc(F)c(F)cc3F)cc2Cl)c(Cl)c1 [Example 199, 3,5-dichloro-4-(2-chloro-4-nitrophenoxy)-N-(2,4,5-trifluorophenyl)benzenesulfonamide] | + | + | + | 
10 | O=S(=O)(Nc1ccc(Oc2cc(C(F)(F)F)ccc2Cl)cc1F)c1ccc(F)cc1 [Example 286, N-{4-[2-chloro-5-(trifluoromethyl)phenoxy]-2-fluorophenyl)-4-fluorobenzenesulfonamide] | + | + | + | 
11 | O=S(=O)(Nc1ccc(Oc2ccc(F)cc2)c(Br)c1)c1ccc(F)cc1 [Example 283, N-[3-bRomo-4-(4-fluorophenoxy)phenyl]-4-fluorobenzenesulfonamide] | + | − | + | 
12 | O=[N+]([O-])c1ccc(Oc2c(Cl)cc(S(=O)(=O)Nc3cccc4c3OC(F)(F)C(F)(F)O4)cc2Cl)c(Cl)c1 [Example 192, 3,5-dichloro-4-(2-chloro-4-nitrophenoxy)-N-(2,2,3,3-tetrafluoro-2,3-dihydro-1,4-benzodioxin-5-yl)benzenesulfonamide] | − | − | + | 
13 | O=S(=O)(Nc1ccc(Oc2ccc(F)cc2)c(Br)c1)c1cc(Cl)ccc1Cl [Example 278, N-[3-bRomo-4-(4-fluorophenoxy)phenyl]-2,5-dichlorobenzenesulfonamide] | + | + | + | 
14 | O=[N+]([O-])c1ccc(Oc2ccc(S(=O)(=O)Nc3ccc(F)cc3C(F)(F)F)cc2Cl)c(C(F)(F)F)c1 [Example 266, 3-chloro-N-[4-fluoro-2-(trifluoromethyl)phenyl]-4-[4-nitro-2-(trifluoromethyl)phenoxy]benzenesulfonamide] | + | + | + | 
15 | O=[N+]([O-])c1ccc(Oc2c(Cl)cc(S(=O)(=O)Nc3ccc(Oc4ccc(F)cc4)c(Br)c3)cc2Cl)c(Cl)c1 [Example 291, N-[3-bRomo-4-(4-fluorophenoxy)phenyl]-3,5-dichloro-4-(2-chloro-4-nitrophenoxy) benzenesulfonamide] | + | + | + | 
16 | O=[N+]([O-])c1ccc(Oc2ccc(S(=O)(=O)Nc3cc(Cl)ccc3C(F)(F)F)cc2Cl)c(C(F)(F)F)c1 [Compound 267, 3-chloro-N-[5-chloro-2-(trifluoromethyl)phenyl]-4-[4-nitro-2-(trifluoromethyl)phenoxy]benzenesulfonamide] | + | + | + | 
17 | O=C(Nc1cccc(Cl)c1)Nc1ccc(Oc2ccc(F)cc2)c(Br)c1 [Compound 304] | + | + | + | 
18 | CC(C)(C)c1cc2cc(NS(=O)(=O)c3cc(Cl)c(Oc4ccc([N+](=O)[O-])cc4Cl)c(Cl)c3)ccc2[nH]1 [Example 245, N-(2-tert-butyl-1H-indol-5-yl)-3,5-dichloro-4-(2-chloro-4-nitrophenoxy)benzene-sulfonamide] | + | + | + | 
19 | O=[N+]([O-])c1ccc(Oc2c(Cl)cc(S(=O)(=O)Nc3ccc(C(F)(F)F)cc3Cl)cc2Cl)c(Cl)c1 [Compound 240, 3,5-dichloro-4-(2-chloro-4-nitrophenoxy)-N-[2-chloro-4-(trifluoromethyl)phenyl]benzenesulfonamide] | + | + | + | 
20 | Cc1cc(F)ccc1NS(=O)(=O)c1cc(Cl)c(Oc2ccc([N+](=O)[O-])cc2Cl)c(Cl)c1 [Example 236, 3,5-dichloro-4-(2-chloro-4-nitrophenoxy)-N-(4-fluoro-2-methylphenyl)benzene-sulfonamide] | + | + | + | 
21 | O=[N+]([O-])c1ccc(Oc2c(Cl)cc(S(=O)(=O)Nc3cccc(F)c3)cc2Cl)c(Cl)c1 [Example 232, 3,5-dichloro-4-(2-chloro-4-nitrophenoxy)-N-(3-fluorophenyl)benzenesulfonamide] | + | + | + | 
22 | O=[N+]([O-])c1ccc(Oc2c(Cl)cc(S(=O)(=O)Nc3ccc4cn[nH]c4c3)cc2Cl)c(Cl)c1 [Example 171, 3,5-dichloro-4-(2-chloro-4-nitrophenoxy)-N-1H-indazol-6-ylbenzenesulfonamide] | + | − | − | 
